# Laboratory results as given in US9175282B2, “Cellobiose 2-epimerase, its preparation and uses” (HAYASHIBARA CO., LTD., priority 2009, dated 2015).
# How the values were obtained:
# [1] = tested on: recombinant cellobiose 2-epimerase; assay: Formation of isomerized saccharides from various saccharides, effect of the amount of enzyme; type: biochemical, Caldicellulosiruptor saccharolyticus ATCC43494; details: for Content of isomerized saccharide in the reaction mixture (%): Epilactose / Content of isomerized saccharide in the reaction mixture (%): Lactulose: GC analysis; for Action of the enzyme on the substrate: summary of Table 5
# Protocol: Each of them was dissolved into 20 mM acetate buffer (pH 6.0), admixed with the purified preparation of the recombinant cellobiose 2-epimerase, obtained by the method in Experiment 4-4, and followed the enzyme reaction under the conditions of 10% (w/v) substrate concentration, 60° C. for 72 hours. The amount of enzyme was set to 130 or 500 units/g-substrate when monosaccharide was used as the substrate, and to 1 or 130 units/g-substrate when disaccharide or trisaccharide was used as the substrate. Each reaction mixture was heated at 100° C. for 10 minutes to stop the reaction and subjected to HPLC analysis to determine the contents of isomerized saccharide, on a dry solid basis. The contents of epilactose and lactulose in the reaction mixture obtained using lactose as substrate were determined by GC analysis described in Experiment 1-2.
# [2] = tested on: recombinant cellobiose 2-epimerase; assay: Substrate specificity of cellobiose 2-epimerase by TLC; type: biochemical, Caldicellulosiruptor saccharolyticus ATCC43494; set-up: key to Action: −: No product is detected; ±: Some products are slightly detected; +: Some products are detected; ++: Some products are clearly detected; details: for Action: 2% (w/w) substrate, MOPS buffer pH 8.0, 500 units/g-substrate, 60° C., 24 hours, product spot on TLC; for Action of the enzyme on the saccharide: summary of Table 3
# Protocol: Substrate specificity of the enzyme was investigated by allowing the purified preparation of the recombinant cellobiose 2-epimerase, obtained by the method of Experiment 4-4, to act on various saccharides. Substrate solutions were prepared by dissolving D-glucose, D-xylose, D-allose, D-ribose, D-galactose, D-fructose, D-mannose, D-psicose, D-tagatose, L-sorbose, L-rhamnose, L-ribose, trehalose, kojibiose, nigerose, isomaltose, neotrehalose, gentiobiose, lactose, sucrose, maltulose, palatinose, maltose, maltotriose, maltotetraose, maltopentaose, maltohexaose, maltoheptaose, cellobiose, cellotriose, cellotetraose, selaginose, isomaltosyl-glucoside, isomaltotriose, panose, isopanose, erlose, maltitol, maltotriitol, methyl-α-glucoside, methyl-β-glucoside, D-glucosamine, D-galactosamine, D-glucuronic acid, N-acetyl-glucosamine, or N-acetyl-galactosamine into MOPS buffer (pH 8.0) to give a final concentration of 2% (w/w) of saccharide and 40 mM buffer.
# Then, each of the resulting substrate solutions was further admixed with 500 units/g-substrate, on a dry solid basis, of the purified preparation of recombinant cellobiose 2-epimerase, obtained by the method in Experiment 4-4, and followed by the enzyme reaction at 60° C. for 24 hours. After stopping the reaction by heating the reaction mixture at 100° C. for 10 minutes, each reaction mixture was subjected to TLC analysis under the conditions in Experiment 1-2 to examine the saccharides in each mixture before and after the reaction. The substrate specificity of the enzyme was judged by investigating whether the spot of the reaction product except for the substrate is detected in the TLC chromatogram or not, and the degree of the strength of the visualized spot.
# [3] = 1 unit/g-substrate, 10% (w/v) substrate, pH 6.0, 60° C., 72 hours
# [4] = 130 units/g-substrate, 10% (w/v) substrate, pH 6.0, 60° C., 72 hours
# [5] = 500 units/g-substrate, 10% (w/v) substrate, pH 6.0, 60° C., 72 hours
Molecule,Action [2],also measured
OC[C@H]1O[C@@H](O[C@H]2[C@H](O)[C@@H](O)C(O)O[C@@H]2CO)[C@H](O)[C@@H](O)[C@H]1O (stereo partly drawn) [Lactose],++,"Content of isomerized saccharide in the reaction mixture (%): Epilactose [1, 3]: 32.0%; Content of isomerized saccharide in the reaction mixture (%): Lactulose [1, 3]: 0.0%; Content of isomerized saccharide in the reaction mixture (%): Epilactose [1, 4]: 12.8%; Content of isomerized saccharide in the reaction mixture (%): Lactulose [1, 4]: 57.5%; Action of the enzyme on the substrate [1]: relatively specifically acted; Action of the enzyme on the saccharide [2]: relatively strong specificity"
OC[C@H]1O[C@H](OC[C@H]2O[C@H](OC[C@H]3OC(O)[C@H](O)[C@@H](O)[C@@H]3O)[C@H](O)[C@@H](O)[C@@H]2O)[C@H](O)[C@@H](O)[C@@H]1O (stereo partly drawn) [Isomaltotriose],−,
Maltulose,±,Action of the enzyme on the saccharide [2]: slightly acted on
C[C@H](O)[C@H](O)[C@@H](O)[C@@H](O)C=O [L-Rhamnose],−,
OC[C@H]1O[C@H](OC[C@H]2OC(O)[C@H](O)[C@@H](O)[C@@H]2O)[C@H](O)[C@@H](O)[C@@H]1O (stereo partly drawn) [Isomaltose],−,
OC[C@H]1O[C@@H](O[C@H]2[C@H](O)[C@@H](O)[C@H](O[C@H]3[C@H](O)[C@@H](O)C(O)O[C@@H]3CO)O[C@@H]2CO)[C@H](O)[C@@H](O)[C@@H]1O (stereo partly drawn) [Cellotriose],++,Action of the enzyme on the saccharide [2]: relatively strong specificity
CO[C@H]1O[C@H](CO)[C@@H](O)[C@H](O)[C@H]1O [Methyl-α-glucoside],−,
OC[C@H]1O[C@@H](O[C@H]2O[C@H](CO)[C@@H](O)[C@H](O)[C@H]2O)[C@H](O)[C@@H](O)[C@@H]1O [Neotrehalose],−,
O=C(CO)[C@@H](O)[C@@H](O)[C@H](O)CO [D-Tagatose],±,"Content of isomerized saccharide in the reaction mixture (%): D-Galactose [1, 5]: 4.7%; Content of isomerized saccharide in the reaction mixture (%): D-Talose [1, 5]: 5.2%; Action of the enzyme on the saccharide [2]: slightly acted on"
OC[C@@H](O)[C@@H](O[C@H]1O[C@H](CO)[C@@H](O[C@H]2O[C@H](CO)[C@@H](O)[C@H](O)[C@H]2O)[C@H](O)[C@H]1O)[C@H](O)[C@@H](O)CO [Maltotriitol],−,
OC[C@H]1O[C@H](O[C@H]2[C@H](O)[C@@H](O)[C@@H](O[C@H]3[C@H](O)[C@@H](O)[C@@H](O[C@H]4[C@H](O)[C@@H](O)C(O)O[C@@H]4CO)O[C@@H]3CO)O[C@@H]2CO)[C@H](O)[C@@H](O)[C@@H]1O (stereo partly drawn) [Maltotetraose],±,Action of the enzyme on the saccharide [2]: slightly acted on
OC[C@H]1O[C@H](OC[C@H]2O[C@H](O[C@H]3[C@H](O)[C@@H](O)C(O)O[C@@H]3CO)[C@H](O)[C@@H](O)[C@@H]2O)[C@H](O)[C@@H](O)[C@@H]1O (stereo partly drawn) [Panose],−,
O=C[C@H](O)[C@@H](O)[C@H](O)CO [D-Xylose],−,
OC[C@H]1O[C@H](OC[C@H]2OC(O)(CO)[C@@H](O)[C@@H]2O)[C@H](O)[C@@H](O)[C@@H]1O (stereo partly drawn) [Palatinose],−,
Maltotriose,+,"Content of isomerized saccharide in the reaction mixture (%): Epimaltotriose [1, 4]: 23.3%; Action of the enzyme on the saccharide [2]: acted on"
OC[C@H]1O[C@H](O[C@H]2[C@H](O)[C@@H](O)[C@@H](OC[C@H]3OC(O)[C@H](O)[C@@H](O)[C@@H]3O)O[C@@H]2CO)[C@H](O)[C@@H](O)[C@@H]1O (stereo partly drawn) [Isopanose],−,
CO[C@@H]1O[C@H](CO)[C@@H](O)[C@H](O)[C@H]1O [Methyl-β-glucoside],−,
O=C(CO)[C@H](O)[C@H](O)[C@H](O)CO [D-Psicose],−,
OC[C@H]1O[C@H](O[C@H]2C(O)O[C@H](CO)[C@@H](O)[C@@H]2O)[C@H](O)[C@@H](O)[C@@H]1O (stereo partly drawn) [Kojibiose],−,
OC[C@H]1O[C@H](OC[C@H]2O[C@H](O)[C@H](O)[C@@H](O)[C@@H]2O)[C@H](O)[C@@H](O)[C@H]1O [Gentibiose],−,
Maltoheptaose,±,Action of the enzyme on the saccharide [2]: slightly acted on
O=C(CO)[C@@H](O)[C@H](O)[C@H](O)CO [D-Fructose],±,"Content of isomerized saccharide in the reaction mixture (%): D-Glucose [1, 4]: 2.2%; Content of isomerized saccharide in the reaction mixture (%): D-Mannose [1, 4]: 2.2%; Action of the enzyme on the saccharide [2]: slightly acted on"

Molecule,Action [2],also measured
OC[C@H]1O[C@H](O[C@H]2[C@H](O)[C@@H](CO)OC(O)[C@@H]2O)[C@H](O)[C@@H](O)[C@@H]1O (stereo partly drawn) [Nigerose],−,
N[C@H]1C(O)O[C@H](CO)[C@H](O)[C@@H]1O (stereo partly drawn) [D-Galactosamine],−,
OC[C@@H](O)[C@@H](O[C@H]1O[C@H](CO)[C@@H](O)[C@H](O)[C@H]1O)[C@H](O)[C@@H](O)CO [Maltitol],−,
OC[C@H]1O[C@@](CO)(O[C@H]2O[C@H](CO)[C@@H](O[C@H]3O[C@H](CO)[C@@H](O)[C@H](O)[C@H]3O)[C@H](O)[C@H]2O)[C@@H](O)[C@@H]1O [Erlose],−,
OC[C@H]1O[C@@H](O[C@H]2[C@H](O)[C@@H](O)[C@H](O[C@H]3[C@H](O)[C@@H](O)[C@H](O[C@H]4[C@H](O)[C@@H](O)C(O)O[C@@H]4CO)O[C@@H]3CO)O[C@@H]2CO)[C@H](O)[C@@H](O)[C@@H]1O (stereo partly drawn) [Cellotetraose],++,Action of the enzyme on the saccharide [2]: relatively strong specificity
O=C[C@H](O)[C@H](O)[C@H](O)CO [D-Ribose],−,
N[C@H]1C(O)O[C@H](CO)[C@@H](O)[C@@H]1O (stereo partly drawn) [D-Glucosamine],−,
O=C[C@H](O)[C@@H](O)[C@H](O)[C@H](O)C(=O)O [D-Glucuronic acid],−,
OC[C@H]1O[C@H](O[C@H]2O[C@H](CO)[C@@H](O)[C@H](O)[C@H]2O[C@H]2O[C@H](CO)[C@@H](O)[C@H](O)[C@H]2O)[C@H](O)[C@@H](O)[C@@H]1O [Selaginose],−,
O=C(CO)[C@@H](O)[C@H](O)[C@@H](O)CO [L-Sorbose],−,
O=C[C@H](O)[C@@H](O)[C@H](O[C@@H]1O[C@H](CO)[C@@H](O)[C@H](O)[C@H]1O)[C@H](O)CO [Cellobiose],++,"Content of isomerized saccharide in the reaction mixture (%): Cellobiulose [1, 3]: 1.7%; Content of isomerized saccharide in the reaction mixture (%): Epicellobiose [1, 3]: 27.8%; Content of isomerized saccharide in the reaction mixture (%): Cellobiulose [1, 4]: 53.2%; Content of isomerized saccharide in the reaction mixture (%): Epicellobiose [1, 4]: 13.4%; Action of the enzyme on the substrate [1]: relatively specifically acted; Action of the enzyme on the saccharide [2]: relatively strong specificity"
Isomaltosyl-glucoside,−,
O=C[C@@H](O)[C@@H](O)[C@@H](O)CO [L-Ribose],−,
O=C[C@H](O)[C@H](O)[C@H](O)[C@H](O)CO [D-Allose],−,
Maltopentaose,±,Action of the enzyme on the saccharide [2]: slightly acted on
OC[C@H]1O[C@@](CO)(O[C@H]2O[C@H](CO)[C@@H](O)[C@H](O)[C@H]2O)[C@@H](O)[C@@H]1O [Sucrose],−,
Maltohexaose,±,Action of the enzyme on the saccharide [2]: slightly acted on
OC[C@H]1O[C@H](O[C@H]2[C@H](O)[C@@H](O)[C@H](O)O[C@@H]2CO)[C@H](O)[C@@H](O)[C@@H]1O [Maltose],+,"Content of isomerized saccharide in the reaction mixture (%): Epimaltose [1, 4]: 22.2%; Content of isomerized saccharide in the reaction mixture (%): Maltulose [1, 4]: 7.7%; Action of the enzyme on the saccharide [2]: acted on"
O=C[C@@H](O)[C@@H](O)[C@@H](O)[C@H](O)CO [D-Talose],,"Content of isomerized saccharide in the reaction mixture (%): D-Galactose [1, 5]: 27.2%; Content of isomerized saccharide in the reaction mixture (%): D-Tagatose [1, 5]: 17.9%"
CC(=O)N[C@H]1C(O)O[C@H](CO)[C@H](O)[C@@H]1O (stereo partly drawn) [N-Acetyl-galactosamine],−,
OC[C@H]1O[C@H](O[C@H]2O[C@H](CO)[C@@H](O)[C@H](O)[C@H]2O)[C@H](O)[C@@H](O)[C@@H]1O [Trehalose],−,
CC(=O)N[C@H]1C(O)O[C@H](CO)[C@@H](O)[C@@H]1O (stereo partly drawn) [N-Acetyl-glucosamine],−,
